Experimental data: US10597388B2, “Pyridazinone herbicides” (FMC CORPORATION, priority 2014, dated 2020)

Key:
Experiment in all cases: Test E greenhouse herbicide test, pre- and postemergence
Assay type in all cases: in vivo
[1] = system: dayflower (Virginia (VA) dayflower, Commelina virginica)
Outline: (§1)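 Pre- and postemergence sprays, same solvent–surfactant formulation. Substrate: silt loam (pre), peat-based mix (post, 1–4 leaf, 2–18 cm). Readout: visual control rating 0–100 against controls at 14–21 d.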

[2] = system: momingglory (Ipomoea coccinea); settings: Preemergence
Outline: as §1

[3] = system: sandbur (southem sandbur, Cenchrus echinatus)
Outline: as §1

[4] = system: nutsedge, yellow (yellow nutsedge, Cyperus esculentus); settings: Preemergence
Outline: as §1

[5] = system: panicum, fall (fall panicum, Panicum dichotomiflorum)
Outline: as §1

[6] = system: goosegrass (Eleusine indica); settings: Preemergence
Outline: as §1

[7] = system: Italian ryegrass (Lolium multiflorum)
Outline: as §1

[8] = system: crabgrass, Brazilian (Brazilian crabgrass, Digitaria horizontalis)
Outline: as §1

soybean (Glycine max) = system: soybean (Glycine max)
Outline: as §1

[9] = system: barnyardgrass (Echinochloa crus-galli)
Outline: as §1

corn (Zea mays) = system: corn (Zea mays)
Outline: as §1

[10] = system: arrowleaf sida (Sida rhombifolia)
Outline: as §1

[11] = system: ragweed (common ragweed, Ambrosia elatior)
Outline: as §1

[12] = system: foxtail, green (green foxtail, Setaria viridis); settings: Preemergence
Outline: as §1

[13] = system: horseweed (Conyza canadensis)
Outline: as §1

[14] = 62 g ai/ha, Postemergence, scale 0 to 100 (0 no effect, 100 complete control)
[15] = 62 g ai/ha, Preemergence, scale 0 to 100 (0 no effect, 100 complete control)
[16] = 125 g ai/ha, Postemergence, scale 0 to 100 (0 no effect, 100 complete control)
[17] = 125 g ai/ha, Preemergence, scale 0 to 100 (0 no effect, 100 complete control)
[18] = Postemergence, 16 g ai/ha, visual, scale 0 no effect to 100 complete control
[19] = Postemergence, 31 g ai/ha, visual, scale 0 no effect to 100 complete control
[20] = Preemergence, 16 g ai/ha, scale 0 to 100, 0 no effect, 100 complete control
[21] = Preemergence, 31 g ai/ha, scale 0 to 100, 0 no effect, 100 complete control
[22] = 62 g ai/ha, scale 0 to 100 (0 no effect, 100 complete control)
[23] = 125 g ai/ha, scale 0 to 100 (0 no effect, 100 complete control)
[24] = 16 g ai/ha, scale 0 to 100, 0 no effect, 100 complete control
[25] = 31 g ai/ha, scale 0 to 100, 0 no effect, 100 complete control

CCCC(=O)Oc1c(C)nn(C)c(=O)c1-c1c(C)sc2ccc(C)cc12 [Compound 105]
Plant response rating, Dayflower, VA [1, 14]: 50 | Plant response rating, Dayflower, VA [1, 15]: 0 | Plant response rating, Dayflower, VA [1, 16]: 60 | Plant response rating, Dayflower, VA [1, 17]: 10 | Plant response rating, Dayflower, VA [1, 18]: 30 | Plant response rating, Dayflower, VA [1, 19]: 30 | Plant response rating, Dayflower, VA [1, 20]: 0 | Plant response rating, Dayflower, VA [1, 21]: 0 | Plant response rating, Morningglory [2, 22]: 70 | Plant response rating, Morningglory [2, 23]: 60 | Plant response rating, Morningglory [2, 24]: 40 | Plant response rating, Morningglory [2, 25]: 20 | Plant response rating, Sandbur [3, 15]: 70 | Plant response rating, Sandbur [3, 16]: 50 | Plant response rating, Sandbur [3, 17]: 75 | Plant response rating, Sandbur [3, 18]: 30 | Plant response rating, Sandbur [3, 19]: 40 | Plant response rating, Sandbur [3, 20]: 0 | Plant response rating, Sandbur [3, 21]: 15 | Plant response rating, Nutsedge, Yellow [4, 22]: 10 | Plant response rating, Nutsedge, Yellow [4, 23]: 40 | Plant response rating, Nutsedge, Yellow [4, 24]: 0 | Plant response rating, Nutsedge, Yellow [4, 25]: 0 | Plant response rating, Panicum, Fall [5, 14]: 70 | Plant response rating, Panicum, Fall [5, 15]: 90 | Plant response rating, Panicum, Fall [5, 16]: 80 | Plant response rating, Panicum, Fall [5, 17]: 98 | Plant response rating, Panicum, Fall [5, 18]: 40 | Plant response rating, Panicum, Fall [5, 19]: 60 | Plant response rating, Panicum, Fall [5, 20]: 25 | Plant response rating, Panicum, Fall [5, 21]: 65 | Plant response rating, Goosegrass [6, 22]: 0 | Plant response rating, Goosegrass [6, 23]: 10 | Plant response rating, Goosegrass [6, 24]: 0 | Plant response rating, Goosegrass [6, 25]: 0 | Plant response rating, Ryegrass, Italian [7, 14]: 70 | Plant response rating, Ryegrass, Italian [7, 15]: 95 | Plant response rating, Ryegrass, Italian [7, 16]: 80 | Plant response rating, Ryegrass, Italian [7, 17]: 100 | Plant response rating, Ryegrass, Italian [7, 18]: 30 | Plant response rating, Ryegrass, Italian [7, 19]: 50 | Plant response rating, Ryegrass, Italian [7, 20]: 75 | Plant response rating, Ryegrass, Italian [7, 21]: 90 | Plant response rating, Crabgrass, Brazil [8, 14]: 40 | Plant response rating, Crabgrass, Brazil [8, 15]: 35 | Plant response rating, Crabgrass, Brazil [8, 16]: 50 | Plant response rating, Crabgrass, Brazil [8, 17]: 75 | Plant response rating, Crabgrass, Brazil [8, 18]: 5 | Plant response rating, Crabgrass, Brazil [8, 19]: 20 | Plant response rating, Crabgrass, Brazil [8, 21]: 0 | Plant response rating, Soybean (soybean (Glycine max); [15]): 0 | Plant response rating, Soybean (soybean (Glycine max); [16]): 25 | Plant response rating, Soybean (soybean (Glycine max); [17]): 75 | Plant response rating, Soybean (soybean (Glycine max); [18]): 0 | Plant response rating, Soybean (soybean (Glycine max); [19]): 10 | Plant response rating, Soybean (soybean (Glycine max); [20]): 0 | Plant response rating, Soybean (soybean (Glycine max); [21]): 0 | Plant response rating, Barnyardgrass [9, 14]: 30 | Plant response rating, Barnyardgrass [9, 15]: 20 | Plant response rating, Barnyardgrass [9, 16]: 30 | Plant response rating, Barnyardgrass [9, 17]: 35 | Plant response rating, Barnyardgrass [9, 18]: 15 | Plant response rating, Barnyardgrass [9, 19]: 20 | Plant response rating, Barnyardgrass [9, 20]: 20 | Plant response rating, Corn (corn (Zea mays); [14]): 15 | Plant response rating, Corn (corn (Zea mays); [15]): 0 | Plant response rating, Corn (corn (Zea mays); [16]): 20 | Plant response rating, Corn (corn (Zea mays); [17]): 0 | Plant response rating, Corn (corn (Zea mays); [18]): 0 | Plant response rating, Corn (corn (Zea mays); [19]): 5 | Plant response rating, Corn (corn (Zea mays); [20]): 0 | Plant response rating, Corn (corn (Zea mays); [21]): 0 | Plant response rating, Arrowleaf Sida [10, 14]: 60 | Plant response rating, Arrowleaf Sida [10, 15]: 40 | Plant response rating, Arrowleaf Sida [10, 16]: 70 | Plant response rating, Arrowleaf Sida [10, 17]: 50 | Plant response rating, Arrowleaf Sida [10, 18]: 50 | Plant response rating, Arrowleaf Sida [10, 19]: 60 | Plant response rating, Arrowleaf Sida [10, 20]: 0 | Plant response rating, Arrowleaf Sida [10, 21]: 0 | Plant response rating, Ragweed [11, 14]: 90 | Plant response rating, Ragweed [11, 15]: 95 | Plant response rating, Ragweed [11, 16]: 95 | Plant response rating, Ragweed [11, 17]: 98 | Plant response rating, Ragweed [11, 18]: 70 | Plant response rating, Ragweed [11, 20]: 50 | Plant response rating, Ragweed [11, 21]: 65 | Plant response rating, Foxtail, Green [12, 22]: 30 | Plant response rating, Foxtail, Green [12, 23]: 40 | Plant response rating, Foxtail, Green [12, 24]: 0 | Plant response rating, Foxtail, Green [12, 25]: 0 | Plant response rating, Horseweed [13, 14]: 85 | Plant response rating, Horseweed [13, 15]: 100 | Plant response rating, Horseweed [13, 17]: 100 | Plant response rating, Horseweed [13, 18]: 80 | Plant response rating, Horseweed [13, 19]: 85 | Plant response rating, Horseweed [13, 20]: 0 | Plant response rating, Horseweed [13, 21]: 0
